According to patent US10639320B2, “Pharmaceutical composition comprising gold-containing agent for preventing or treating liver fibrosis or liver cirrhosis” (KOREA UNITED PHARM. INC., priority 2014, dated 2020):

Key:
[1] = test system: RAW264.7 cells; assay: iNOS and TREM-2 expression by western blot in RAW264.7 cells under M1-type differentiation (LPS/IFN-γ); assay type: cell-based, mouse; settings: RAW264.7 cells treated with LPS/IFN-γ (M1-type condition)
Experimental: (§1) Sodium dodecyl sulfate-polyacrylamide gel electrophoresis (SDS-PAGE) was performed using a gel electrophoresis apparatus (Mighty Small SE 250, Hoefer Scientific Instruments, San Francisco, USA) according to the Laemmli's protocol. A dissolved fraction of cells was diluted in a sample dilution buffer [63 mM Tris (pH.6.8), 10% glycerol, 2% SDS, 0.0013% bromophenol blue, 5% β-mercaptoethanol) and electrophoresed in an electrode buffer (containing Tris (15 g), glycerin (72 g), and SDS (5 g) in 1L solution) using 8%- and 10% gels. Upon completion of gel electrophoresis, the gel was transferred onto a nitrocellulose membrane at 40 mAmps for 3 hours in a transfer buffer solution (25 mM Tris, 192 mM glycerin, 20% v/v methanol (pH 8.3)). Each of anti-TREM-2, anti-arginase-1, anti-iNOS, anti-α-SMA, and anti-collagen-1a1, as primary antibodies, was reacted on the nitrocellulose membrane, respectively, and horseradish peroxidase-conjugated goat anti-rabbit IgG and horseradish peroxidase-conjugated goat anti-mouse IgG, as secondary antibodies, were reacted thereonto for 1 hour, and the nitrocellulose membrane was allowed to develop colors using the ECL detection system (ECL chemiluminescence system, Amersham, Gaithesberg, Mass., USA). The identity of protein contents in a sample was confirmed using anti-β-actin antibody and anti-lamin A/C. With respect to the change in the amount of protein expression, the coloration intensity was induced using a densitometry and the scanning of the densitometry was performed using the Image Scan & Analysis System, Alpha-Innotech Co. (USA). In each lane, the intensities were calculated using the AlphaEase™ version 5.5 software by subtracting background intensities.
In order to confirm whether gold-containing agents can induce the transformation into M2-type macrophages, the RAW264.7 cells, which is a mouse macrophage cell line, were treated with lipopolysaccharide (LPS)/interferon-gamma (IFN-γ), followed by treatment with auranofin in a condition for differentiation into M1-type macrophages, and the increase/decrease in expressions of iNOS and TREM-2 was confirmed by western blot analysis.
First, the RAW264.7 cells, which is a mouse macrophage cell line, were respectively treated with sodium aurothiomalate and aurothioglucose, which are analogous to auranofin, in a condition for differentiating the cells into M1-type macrophages by treating with lipopolysaccharide (LPS)/interferon-gamma (IFN-gamma), and the increase/decrease in expression of iNOS was confirmed by western blot analysis.

[2] = test system: RAW264.7 cells; assay: Arginase-1 expression by western blot in RAW264.7 cells under M2-type differentiation (IL-4); assay type: cell-based, mouse; settings: RAW264.7 cells treated with IL-4 (M2-type condition)
Experimental: as §1, with “The identity of protein contents in a sample was confirmed using anti-β-actin antibody and anti-lamin A/C. With respect to the change in the amount of protein expression, the coloration intensity was induced using a densitometry and the scanning of the densitometry was performed using the Image Scan & Analysis System, Alpha-Innotech Co. (USA).” left out, “intensities. […]” for “intensities.”

[3] = test system: MEF cells; assay: α-SMA expression by western blot in MEF cells treated with medium of auranofin-treated RAW264.7 cells; assay type: cell-based, mouse; settings: MEF cells treated with medium from treated RAW264.7 cells
Experimental: as §1, with “The identity of protein contents in a sample was confirmed using anti-β-actin antibody and anti-lamin A/C. With respect to the change in the amount of protein expression, the coloration intensity was induced using a densitometry and the scanning of the densitometry was performed using the Image Scan & Analysis System, Alpha-Innotech Co. (USA).” left out, “intensities. […]” for “intensities.”

[4] = test system: carbon tetrachloride-induced liver fibrosis; assay: Mouse model with carbon tetrachloride-induced liver fibrosis: fibrosis scores, α-SMA and collagen-1a1 in liver tissue; assay type: in vivo, C57BL/6J mice; settings: 5 times a week for 3 weeks, CCl4 mouse model
Experimental: A mouse model with carbon tetrachloride-induced liver fibrosis was prepared by repeatedly administering 0.5 ml/kg of carbon tetrachloride to C57BL/6J mice twice a week for three weeks.
as §1, with “The identity of protein contents in a sample was confirmed using anti-β-actin antibody and anti-lamin A/C. With respect to the change in the amount of protein expression, the coloration intensity was induced using a densitometry and the scanning of the densitometry was performed using the Image Scan & Analysis System, Alpha-Innotech Co. (USA).” left out
In the case of liver tissue, a certain amount of liver tissue was homogenized in a mortar along with liquid nitrogen and a cell lysis buffer, transferred into a new tube, and vortexed. The resultant was centrifuged at 14,000 rpm and 4° C. for 20 minutes and the middle layer was collected therefrom and the protein amount was quantitated by Bradford assay. After subjecting 30 μg of the protein to electrophoresis by SDS-PAGE, the change in the expression of α-SMA protein was measured by western blot analysis. […]

## OC[C@H]1O[C@H]([S-])[C@H](O)[C@@H](O)[C@@H]1O.[Au+] [aurothioglucose]
[1]
  expression of iNOS: inhibited
[2]
  expression of arginase-1: increased

## O=C([O-])CC([S-])C(=O)[O-].[Au+].[Na+].[Na+] (stereo not shown) [sodium aurothiomalate]
[1]
  expression of iNOS: inhibited
[2]
  expression of arginase-1: increased

## CC[PH](CC)(CC)[Au][S][C@@H]1O[C@H](COC(C)=O)[C@@H](OC(C)=O)[C@H](OC(C)=O)[C@H]1OC(C)=O [auranofin, 2,3,4,6-tetra-O-acetyl-1-thio-β-D-glucopyranosato-S-[triethylphosphine] gold]
[1]
  expression of TREM-2: increasing
  expression of iNOS: inhibited
[3]
  expression of α-SMA: inhibited
[4]; 10 mg/kg oral, H&E staining
  liver fibrosis scores: significantly lowered
[4]; oral 1, 3 and 10 mg/kg
  expression of collagen-1a1 in liver tissue: apparently reduced
  expression of α-SMA in liver tissue: apparently reduced
